Bounds are passed on as bounds.

Assay [1] deals with Tyrosine-protein kinase SYK (Homo sapiens) (UniProt P43405). As to the kind of experiment: Inhibition of SYK.
For assay [2], the target named is 3-phosphoinositide-dependent protein kinase 1 (Homo sapiens) (UniProt O15530). Nature of the assay: Inhibition of PDK1.
Assay [3] deals with Mitogen-activated protein kinase 10 (Homo sapiens, UniProt P53779). Nature of the assay: Inhibition of JNK3 by spectrophotometric coupled enzyme assay.
Mitogen-activated protein kinase 10, sequence (P53779 whole entry): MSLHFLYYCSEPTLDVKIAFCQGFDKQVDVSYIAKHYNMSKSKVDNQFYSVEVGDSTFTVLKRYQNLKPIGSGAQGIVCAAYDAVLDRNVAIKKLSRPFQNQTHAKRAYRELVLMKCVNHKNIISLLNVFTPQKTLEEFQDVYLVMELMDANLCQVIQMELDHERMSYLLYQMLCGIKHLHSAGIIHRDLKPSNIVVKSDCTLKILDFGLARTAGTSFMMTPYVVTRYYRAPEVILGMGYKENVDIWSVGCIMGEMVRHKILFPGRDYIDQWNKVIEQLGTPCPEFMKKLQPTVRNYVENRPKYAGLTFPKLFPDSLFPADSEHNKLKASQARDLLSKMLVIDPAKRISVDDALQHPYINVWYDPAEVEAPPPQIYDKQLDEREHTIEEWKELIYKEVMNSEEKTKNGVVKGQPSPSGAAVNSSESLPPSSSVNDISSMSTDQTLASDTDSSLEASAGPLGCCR

Consider `Cc1ccc2c(c1)N(Cc1cc(F)cc3c1OCOC3)C(=O)C2N=O` (configuration not stated) [1-((6-fluoro-4H-benzo[d][1,3]dioxin-8-yl)methyl)-3-(hydroxyimino)-6-methylindolin-2-one], for which the Ki in assay [1] and in assay [2] was above 30 µM in each case.

Consider `Cc1ccc2c(c1)C(N=O)C(=O)N2Cc1ccccc1` (configuration not stated) [1-benzyl-3-(hydroxyimino)-5-methylindolin-2-one], for which the Ki (in general, a measure of affinity in units of concentration, obtained from inhibition or displacement) in assay [3] is above 10 µM.

For `O=NC1C(=O)N(Cc2ccccc2)c2ccccc21` (configuration not stated) [1-benzyl-3-(hydroxyimino)indolin-2-one], the inhibitory constant (Ki) in assay [3] was above 10 µM.

For the compound `O=NC1C(=O)N(Cc2ccccc2)c2ccc(F)cc21` (configuration not stated) [1-benzyl-5-fluoro-3-(hydroxyimino)indolin-2-one], the Ki in assay [3] was above 10 µM.

As to `O=NC1C(=O)N(Cc2ccccc2[N+](=O)[O-])c2ccccc21` (configuration not stated) [3-(hydroxyimino)-1-(2-nitrobenzyl)indolin-2-one], in assay [3], the Ki is above 10 µM.

`Cc1cccc(CN2C(=O)C(N=O)c3cc(C)ccc32)c1` (configuration not stated) [3-(hydroxyimino)-5-methyl-1-(3-methylbenzyl)indolin-2-one]: the Ki in assay [3] is above 10 µM.
